Experimental data: US7659246B2, “Treatment of osteoarthritis” (Promics Pty Limited, priority 2002, dated 2010)

Tests used:
osteoarthritis [1] = assay: Clinical trial of PMX53 in arthritic dogs; format: in vivo, dog
Source text: A single oral dose of the drug appears to be effective for at least 3-4 days, even in the most severe case. […] The individual cases are listed below.

induced osteoarthritis = assay: Induced osteoarthritis in dogs (cruciate ligament transection); format: in vivo, dog
Method: Four healthy dogs were obtained from a group of pound dogs destined for euthanasia. The dogs were acclimatised to the experimental canine ward for 7 days before the experiment commenced. Dogs were housed individually and fed on a mixture of dry dog food, canned dog food and occasional raw bones. They were walked for 10 minutes twice daily throughout the trial. The dogs were of age and sex as follows:
PMX53 was synthesised by the Institute of Molecular Bioscience at the University of Queensland. The drug was dissolved in 30% polyethylene glycol 400 (PEG 400) in normal saline. The solution was made to a concentration of 3 mg/ml. The placebo vehicle was 30% PEG 400 in saline. All treatments were sterilised by filtration and stored at 4° C. The dogs were given the drug or placebo at a dose rate of 1 ml/10 kg body weight. The treatments were assigned to the dogs in a random fashion. The drug containers were marked so that the attendants who scored the gait were unaware of the treatment given to each dog.
The cruciate ligament of the left stifle (knee) joint was transected surgically by an experienced specialist surgeon. The incision in the skin was approximately 2 centimeters long. The dogs were given postoperative pain relief, including epidural analgesia and opioids. At 24 hours after the surgery all dogs were limping. No supplementary analgesic therapy was deemed necessary after day 1. All dogs tolerated the procedure very well.
The drug was given as a subcutaneous injection (0.3 mg/kg) into the loose skin on the dorsum of the neck once daily. […] Dogs were assessed twice daily for lameness while they were walked. The scoring was done by at least two people.

dermal Arthus reaction = assay: Reverse passive dermal Arthus reaction in the rat; format: in vivo; conditions: intravenous, oral and topical pretreatment
osteoarthritis [2] = assay: Clinical trial of PMX53 in arthritic dogs; format: in vivo, dog; conditions: dogs with osteoarthritis; sc injection
[3] = tested on: antigen-induced arthritis of the knee joint; assay: Rat monoarticular antigen-induced arthritis; format: in vivo
Method: Female Wistar rats (150-250 g) were obtained from the Central Animal Breeding House, University of Queensland. […] Each rat received a subcutaneous injection of this suspension (0.5 mL) on days 1 and 7. On day 12-28, rats were separated into separate cages, and body weight and food and water intake monitored daily. Rats received either ordinary tap water or drinking water containing AcF-[OPdChaWR] (1). […] On day 14, rats were anaesthetised and their hind limbs shaven. […] Rats were euthanased on day 28, and whole blood collected into an Eppendorf tube and allowed to spontaneously clot on ice. Blood samples were centrifuges (11,000 rpm×3 min) and serum collected and stored at −20° C. until analysis of serum cytokines using an ELISA. Each knee capsule was lavaged with 100 μL saline, and the total cell count determined using a haemocytometer. In addition, an aliquot of the knee joint lavage fluid was dropped onto a glass slide, and allowed to air dry. Once dry, cells were stained with a differential stain (Diff Quick) and a differential cell count was performed using a 40× dry lens microscope. The remaining lavage fluids from each joint were stored at −20° C. until later analysis of intra-articular cytokine levels using an ELISA. Each knee joint was severed, trimmed leaving only the area of interest and the skin was split with a scalpel blade. Knee samples were stored in 10% buffered formalin for >10 d. Knees were then rinsed with distilled water and placed in a saturated solution of EDTA solution for 21 d for decalcification before being embedded in paraffin wax. Knee tissue samples were prepared using standard histological techniques as described in Example 1, and stained using an haematoxylin and eosin stain. Histological slides were analysed in a blind fashion. […] In no samples was there evidence of significant bone erosion. Samples were thawed on the day of ELISA analysis, and serum or intra-articular lavage fluid TNFα and IL-6 concentrations were determined from a standard curve, using an ELISA as described in Example 1.

[4] = dogs, day 28, compared to arthritic controls, FIG. 7

With `CC(=O)N[C@@H](Cc1ccccc1)C(=O)N[C@H]1CCCNC(=O)[C@H](CCCNC(=N)N)NC(=O)[C@H](Cc2c[nH]c3ccccc23)NC(=O)[C@@H](CC2CCCCC2)NC(=O)[C@@H]2CCCN2C1=O` [PMX53, AcF-[OPdChaWR]] the “joint pain on manipulation” value (osteoarthritis [1]; Case #1) was “no joint pain on manipulation”, the morning stiffness (osteoarthritis [1]; Case #1) was “no morning stiffness” and the “range of joint movement” value (osteoarthritis [1]; Case #1) was “not improved”. For the same compound, the “time to very noticeable improvement after injection” value (osteoarthritis [1]; Case #1, 0.3 mg/kg subcutaneously) was no more than 24 h, the improvement after treatment (osteoarthritis [1]; Case #1, 1 mg/kg oral once daily, then 0.3 mg/kg sc once daily) was “marked” and the side effects (osteoarthritis [1]; Case #1, injections for 12 months) was “no apparent side effects”. For the same compound, the “attitude (owner report)” value (osteoarthritis [1]; Case #2) was “noticeable improvement in attitude”, the lameness (osteoarthritis [1]; Case #2, 1 mg/kg orally 4 weeks, then 0.3 mg/kg sc once daily) was “did not improve” and the response to therapy (osteoarthritis [1]; Case #3, 1 mg/kg per day orally, then 0.3 mg/kg sc as required, no NSAIDs) was “responded very well”. For the same compound, the side effects (osteoarthritis [1]; Case #3, after 9 months of treatment) was “no side effects”, the “control of clinical signs” value (osteoarthritis [1]; Case #4 (rheumatoid arthritis), 0.3 mg/kg SC once a week alone) was “did not completely control the clinical signs” and the “clinical result in combination with prednisolone” value (osteoarthritis [1]; Case #4, PMX53 once a week with prednisolone 2.5 mg PO once every second day) was “excellent results”. The “duration of effect of a single oral dose” value (osteoarthritis [1]; dogs with osteoarthritis, oral) was 3 to 4 days, the side effects (osteoarthritis [1]; dogs, up to 12 months treatment) was “No side effects” and the cartilage erosion (induced osteoarthritis; dog #2 (drug treated), also seen in placebo dog #4, day 28) was “mild cartilage erosion”. For the same compound, the “time of treatment to improvement in the degree of lameness” value (induced osteoarthritis; dogs n=2, 0.3 mg/kg sc once daily, placebo 10-13 days, FIG. 6b) was 4 to 6 days, the “clinical impression of ability to walk” value (induced osteoarthritis; dogs, 0.3 mg/kg sc once daily) was “clearly improved the ability of the dogs to walk” and the “gait at the end of the trial” value (induced osteoarthritis; dogs, 0.3 mg/kg sc once daily, day 28) was “relatively sound”. For the same compound, the “blood biochemistry and haematology” value (induced osteoarthritis; dogs, before surgery and at day 28) was “No abnormalities were detected”, the “fibrosis of the joint (histopathology)” value (induced osteoarthritis; [4]) was “reduced fibrosis” and the “thickening of the synovial membrane (histopathology)” value (induced osteoarthritis; [4]) was “reduced thickening of the synovial membrane”. For the same compound, the discomfort when injected (induced osteoarthritis; dogs, sc in 30% PEG 400 in saline, drug and placebo alike) was “mild discomfort”, the “site of injection at post mortem” value (induced osteoarthritis; dogs, sc, dorsum of the neck, day 28) was “no abnormalities” and the recovery from surgery (induced osteoarthritis; dogs, versus placebo-treated dogs) was “recovered from surgery more rapidly”. For the same compound, the “rise in circulating TNFα associated with a dermal Arthus reaction” value (dermal Arthus reaction; rat serum, FIG. 2) was “inhibition of the rise in circulating TNFα”, the “vascular leakage associated with a dermal Arthus reaction” value (dermal Arthus reaction; rat, Evans blue absorbance at 650 nm, FIG. 1) was “inhibition of the vascular leakage” and the “duration of effects of one injection” value (osteoarthritis [2]) was “last for weeks”. For the same compound, the “right knee joint IL-6 level in joint lavage” value ([3]; FIG. 5) was “inhibition”, the “right knee joint TNFα level in joint lavage” value ([3]; FIG. 5) was “inhibition” and the “arthritic right knee joint swelling” value ([3]; given orally on Days -2 to +14, FIG. 4) was “inhibition of arthritic right knee joint swelling”.
